Columns and labels:
Prothrombin = Prothrombin (Homo sapiens, UniProt P00734); test: Inhibition of human alpha-thrombin
Coagulation factor X = Coagulation factor X (Homo sapiens, UniProt P00742); test: Inhibition of human factor 10a
Coagulation factor X, sequence (P00742 41-179 limits assumed): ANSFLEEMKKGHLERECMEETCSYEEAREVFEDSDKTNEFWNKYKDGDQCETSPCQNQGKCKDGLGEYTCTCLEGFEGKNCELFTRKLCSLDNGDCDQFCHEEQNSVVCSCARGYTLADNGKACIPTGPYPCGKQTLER
Coagulation factor X, sequence (P00742 235-488 limits assumed): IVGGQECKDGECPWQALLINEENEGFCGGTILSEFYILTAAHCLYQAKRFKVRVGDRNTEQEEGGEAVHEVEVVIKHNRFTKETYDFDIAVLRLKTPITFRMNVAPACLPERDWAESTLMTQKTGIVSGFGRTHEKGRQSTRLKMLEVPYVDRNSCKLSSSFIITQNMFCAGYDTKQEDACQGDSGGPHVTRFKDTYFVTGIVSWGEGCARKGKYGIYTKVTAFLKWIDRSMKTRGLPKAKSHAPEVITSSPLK

Row | SMILES | IC50 (Prothrombin) [nM] | Ki (Prothrombin) [nM] | IC50 (Coagulation factor X) [nM]
1 | CC(C)C[C@H](NC(=O)NCc1ccc(Cl)c(Cl)c1)C(=O)N[C@H](C(=O)N[C@@H](CCCN=C(N)N)C(=O)c1nccs1)C(C)C | 2600 |  | 
2 | C[C@]12C[C@@H](Cc3ccccc3)CC(=O)N1[C@H](C(=O)N[C@@H](CCCN=C(N)N)C(=O)c1nc3ccccc3s1)CS2 |  | 18 | 
3 | N=C(N)NCCC[C@H](NC(=O)CN1CCN(S(=O)(=O)Cc2ccccc2)[C@H](Cc2ccccc2)C1=O)C(=O)c1nccs1 | 510 |  | 0.9
4 | N=C(N)NCCC[C@@H](NS(=O)(=O)Cc1ccccc1)C(=O)NCC(=O)N[C@@H](CC1CCNCC1)C(=O)c1nccs1 |  |  | 28
5 | N=C(N)NCCC[C@H](NC(=O)[C@@H]1CC[C@H]2CN(C(=O)CCc3ccccc3)CC(=O)N21)C(=O)c1nc2ccccc2s1 | < 1 |  | 
6 | N=C(N)NCCC[C@@H](NS(=O)(=O)Cc1ccccc1)C(=O)NCC(=O)N[C@@H](Cc1ccncc1)C(=O)c1nccs1 |  |  | 44
7 | N=C(N)N1CCC[C@@H](C[C@H](NC(=O)CN2C(=O)CN(c3ccccc3)C(=O)[C@H]2Cc2ccccc2)C(=O)c2nccs2)C1 | 1200 |  | 
8 | N=C(N)NCCC[C@H](NC(=O)CNC(=O)[C@@H](Cc1ccccc1)NS(=O)(=O)Cc1ccccc1)C(=O)c1nccs1 |  |  | 2
9 | N=C(N)NCCC[C@H](NC(=O)CNC(=O)[C@@H](CC1CCCCC1)NS(=O)(=O)Cc1ccccc1)C(=O)c1nccs1 | 40 |  | 0.6
10 | N=C(N)NCCC[C@@H](NS(=O)(=O)Cc1ccccc1)C(=O)NCC(=O)N[C@@H](CCCCN)C(=O)c1nccs1 |  |  | 1
11 | N=C(N)N1CCC[C@@H](C[C@H](NC(=O)CN2C(=O)CN(CCCc3ccc(Cl)cc3)C(=O)[C@H]2Cc2ccccc2)C(=O)c2nccs2)C1 | 110 |  | 
12 | Cc1cccc(C(C)(C)CN(CC(=O)NCC(=O)NC(CCCN=C(N)N)B(O)O)C(=O)CCc2ccccc2)c1 (single isomer, unassigned) |  | 400 | 
13 | CN(CC(=O)N[C@@H](CCCNC(=N)N)C(=O)c1nccs1)C(=O)CNS(=O)(=O)c1ccccc1 |  |  | 6
14 | N=C(N)NCCC[C@H](NC(=O)[C@@H]1CC[C@H]2CN(S(=O)(=O)Cc3ccccc3)CC(=O)N21)C(=O)c1nccs1 |  | 0.2 | 
15 | N=C(N)NCCC[C@H](NC(=O)CNC(=O)[C@@H](Cc1c[nH]c2ccccc12)NS(=O)(=O)Cc1ccccc1)C(=O)c1nccs1 |  |  | 2
16 | N=C(N)NCCC[C@H](NC(=O)CN1CCN(Cc2ccccc2)CC1=O)C(=O)c1nccs1 | 14000 |  | 770
17 | N=C(N)NCCC[C@@H](N)C(=O)NCC(=O)N[C@@H](CCCNC(=N)N)C(=O)c1nccs1 |  |  | 8
18 | N=C(N)NCCC[C@H](NC(=O)[C@@H]1CC[C@H]2CN(C(=O)CCOc3ccccc3)CC(=O)N21)C(=O)c1nccs1 |  | 5 | 
19 | NC(N)=NCCC[C@H](NC(=O)[C@@H]1CC[C@H]2CN(C(=O)[C@H](N)Cc3cc4ccccc4[nH]3)CC(=O)N21)C(=O)c1nccs1 |  | 1 | 
20 | N=C(N)NCCC[C@H](NC(=O)[C@@H]1CCCN1C(=O)[C@H](CO)NS(=O)(=O)c1cccc2ccccc12)C(=O)c1nc2ccccc2s1 |  | 0.8 | 
21 | CS(=O)(=O)N[C@H](CCCNC(=N)N)C(=O)NCC(=O)N[C@@H](CCCNC(=N)N)C(=O)c1nccs1 |  |  | 2
22 | C[C@]12C[C@@H](Cc3ccccc3)CC(=O)N1[C@H](C(=O)N[C@@H](CCCNC(=N)N)C(=O)c1nccs1)CS2 |  | 16 | 
23 | NC(N)=NCCC[C@H](NC(=O)CN1CCN(S(=O)(=O)c2ccc(Cl)cc2)CC1=O)C(=O)c1nccs1 | 1000 |  | 
24 | C[C@]12C[C@@H](Cc3ccc4nc(C(F)(F)F)ccc4c3)CC(=O)N1[C@H](C(=O)N[C@@H](CCCN=C(N)N)C(=O)c1nccs1)CS2 |  | 10 | 
25 | NC(N)=NCCC[C@H](NC(=O)CN1CCCC[C@@H](NS(=O)(=O)Cc2ccccc2)C1=O)C(=O)c1nccs1 | 38 |  | 
26 | N=C(N)NCCC[C@H](NC(=O)[C@@H]1CCCN1C(=O)CC(c1ccccc1)c1ccccc1)C(=O)c1nc2ccccc2s1 |  | 1.1 | 
27 | C[C@]12C[C@@H](Cc3ccc4nc(C(F)(F)F)ccc4c3)CC(=O)N1[C@H](C(=O)N[C@@H](CCCNC(=N)N)C(=O)c1nc3ccccc3s1)CS2 |  | 18 | 

From ChEMBL document CHEMBL1143211, “Inhibitors of proteases and amide hydrolases that employ an alpha-ketoheterocycle as a key enabling functionality” (Bioorg Med Chem, 2008)
